Entries after “also recorded” stand apart in the source; their conditions may differ.
How the values were obtained:
wnt activity [1] = experiment: wnt activity in the AGM of TOP:gal mice; settings: mouse, in vivo
wnt activity [2] = experiment: wnt reporter TOP:dGFP zebrafish embryos; assay type: in vivo; settings: vs control
From the text: Clinical experience in patients with APC mutations has shown that inhibition of prostaglandin synthesis results in decreased wnt mediated polyp formation. […] These interactions were examined in vivo using a wnt reporter zebrafish transgenic line, TOP:dGFP. At fifty-percent epiboly, embryos were subjected either to nothing (control), indomethacin, or PGE2, and the amount of wnt signaling activated in the embryo assessed by GFP induction driven from the wnt binding site. Analysis of alterations in GFP expression in the head was analyzed by in situ hybridization. […] FIG. 12.

runx1/cmyb+ AGM HSCs [3] = settings: for effect on AGM HSCs in zebrafish embryos (in words): exposure from three somites to 36 hpf, runx1/cmyb staining
Procedure: A chemical genetic screen was conducted to identify novel pathways that modulate definitive HSC formation during zebrafish embryogenesis. FIG. 1. Genes such as runx1 and cmyb, required for HSC development during mammalian hematopoiesis, are expressed in the ventral wall of the dorsal aorta in a region analogous to the mammalian AGM at thirty-six hours post-fertilization (hpf). […] Wild-type embryos were incubated with individual compounds from the three-somite stage until thirty-six hpf. Probes for runx1 and cmyb were combined and utilized to detect HSCs by in situ hybridization.
Wild-type age-matched embryos were arrayed into 48-well plates (˜5 embryos/well) of individual test compounds and exposed from 3-somites until 36 hpf. […] In situ hybridization for runx1 and cmyb was performed to assess HSCs. Compounds were retested at 10 μM, 20 μM, and 50 μM. Stem cell specificity was assessed using flk1 at 36 hpf. PGE2, PGI2, dmPGE2 and all cox inhibitors (Sigma) were used at 10 μM to 20 μM.
Qualitative scoring (# embryos with altered HSCs/# scored) of runx1/cmyb was conducted using the following criteria: Normal/unchanged=continuous line of runx1/cmyb+ endothelial cells and occasional hematopoietic clusters. Decreased/absent=reduction in runx1/cmyb+ cells, including the presence of large gaps in the line of HSCs, isolated positive cells, or absence of expression. Increased/excess=enhancement in runx1/cmyb^+ cells, including many HSC clusters, a thickened line of HSCs, or ectopic expression.

cmyb/lmo2+ HSCs = experiment: Confocal quantification of HSCs in cmyb:GFP x lmo2:dsRed bigenic embryos; assay type: in vivo, zebrafish; settings: 36 hpf live embryos
Procedure: A long-acting derivative, 16,16-dimethyl-PGE2 (dmPGE2, 10 μM) caused an increase in runx1/cmyb+ AGM HSCs in 78% of embryos examined (97/124). AGM HSCs were inhibited by indomethacin (10 μM) treatment in 90% of embryos analyzed (92/102). […] Transgenic cmyb:GFP zebrafish with green fluorescent HSCs and myeloid progenitor cells were crossed to lmo2:dsRed fish that have red fluorescent endothelial cells and HSCs to visualize the effects of chemical exposure in vivo. […] FIG. 3.
Live 36 hpf treated bigenic zebrafish embryos were embedded in 1% low-melting point agarose containing 0.4 mg/ml Tricaine-S for confocal imaging. cmyb-GFP transgenic reporter lines were created from a BAC containing the cmyb promoter genomic sequence (Galloway, Zhu, Lin, Zon, unpublished); lmo2:DsRed fish were created as described^27. For HSC quantification, cmyb/lmo2+ positive cells were counted in projections of z-stack images (n=10/treatment).

PGE2 formation = experiment: HPLC-tandem mass spectrometry of PGE2 in zebrafish embryos; assay type: in vivo; settings: 36 hpf embryos, n=3; untreated 18+/−6
Procedure: PGE2 and the stable PGI2 metabolite, 6-keto-PGF1α, were measured using HPLC-tandem mass spectrometry. Ethylacetate extracts from homogenized embryos were spiked with the corresponding stable isotope labeled internal standards (d4-PGE2 and d4-6-keto PGF1α) and allowed to react with methoxylamine. The following mass transitions were monitored: m/z 384→272 (PGE), m/z 398→368 (6-keto PGF1α and TxB2).

mouse ES cells = experiment: ES cell hematopoietic differentiation assays (M3434 methylcellulose and OP9 colony assays); assay type: cell-based; settings: indomethacin 20 μM (OP9) and 100 μM (GM)
Procedure: ES cell hematopoietic differentiation assays were performed as previously described. […] M3434 methylcellulose colony forming and OP9 colony assays were conducted on day 6 and analyzed at […], respectively. Colony type was identified by morphological analysis; duplicate chemical exposures were averaged to determine the reported colony number (n=3 replicates minimum).

vasculature (flk1) = settings: zebrafish, in vivo, 10 μM
Procedure: Wild-type age-matched embryos were arrayed into 48-well plates (˜5 embryos/well) of individual test compounds and exposed from 3-somites until 36 hpf. Three compound libraries were utilized: NINDS Custom Collection (1040), SpecPlus Collection (960) and BIOMOL ICCB Known Bioactives (480). […] In situ hybridization for runx1 and cmyb was performed to assess HSCs. Compounds were retested at 10 μM, 20 μM, and 50 μM. Stem cell specificity was assessed using flk1 at 36 hpf. PGE2, PGI2, dmPGE2 and all cox inhibitors (Sigma) were used at 10 μM to 20 μM.

runx1, cmyb expression = experiment: qPCR of HSC gene expression in treated zebrafish embryos; assay type: in vivo
wnt activity [4] = experiment: wnt activity in kidney marrow of irradiated Top:dGFP adults; assay type: in vivo, zebrafish; settings: day three post irradiation
Procedure: (§1) To determine if prostaglandin pathway manipulation can alter wnt activity in the kidney marrow repopulation in the adult, the effects of dmPGE2 and indomethacan was examined further in Top:dGFP lines. […] FIG. 14. To discern whether modulation of prostaglandin signaling can modify the wnt mediated effects on kidney marrow recovery following irradiation, wnt genes were activated by heat shock at 38° C. at two days post irradiation and then. exposure to prostaglandin pathway drugs at one day post heat shock. The hs:wnt8-GFP fish were exposed to indomethacin, while the dkk1, axin, and dnTCF transgenic fish were exposed to dmPGE2. Whole kidney marrow was analyzed by FACS on day ten post-irradiation.

runx1/cmyb+ AGM HSCs [5] = experiment: Heat shock wnt-pathway transgenic embryos treated with PG drugs: AGM HSC formation; assay type: in vivo, zebrafish; settings: hs:wnt8 embryos heat shocked at five somites
Procedure: More specifically, Wnt signaling through its main transcriptional mediator β-catenin plays an important role in controlling tissue patterning, cell fate decisions, and proliferation in many embryonic contexts, including the development and differentiation of organs. […] Whether wnt signaling has a role during HSC formation in zebrafish was determined using heat shock inducible activators and repressors of the wnt pathway. Briefly, wnt-inducible embryos were harvested and heat shocked for twenty minutes at 38° C. Genotypes were sorted by GFP expression, and the AGM HSCs analyzed by runx1/cmyb expression in situ. […] This is the first evidence in any organism that wnt signaling is required for AGM HSC formation.
Additionally, indomethacin and dmPGE2 was used to investigate the interaction of the wnt and prostaglandin pathways during HSC development and in marrow recovery following injury. FIG. 13 reflects the potential points of interaction of the PG and wnt pathways. […] Furthermore, dmPGE2 can rescue the inhibitory effects of dkk activation on AGM HSC formation at 36 hpf, as shown by in situ hybridization for runx1/cmyb.

[6] = system: CFU-S from murine bone marrow cells; experiment: Murine colony-forming units-spleen (CFU-S); assay type: in vivo, mouse
Procedure: Two independent BM samples were treated (n=5/treatment×2 replicates) for each variable. Recipient mice were lethally irradiated with a split dose of 10 Gy. 6×10^4 unfractionated dmPGE2 or control-treated BM cells were injected retro-orbitally into irradiated recipient mice. Spleens were dissected on day eight or twelve, weighed and fixed with Bouin's solution; hematopoietic colonies per spleen were counted. 1×10^5 cells/recipient were transplanted after treatment with the cox inhibitors. FACS sorted ckit^+sca1^+lineage^− BM cells were treated as above and transplanted at a dose of either 100 cells/recipient or 300 cells/recipient.

[7] = system: kidney marrow precursor cell population; experiment: Kidney marrow recovery after irradiation in heat shock wnt transgenic adults treated with PG drugs; assay type: in vivo, zebrafish; settings: hs:wnt8-GFP adults, day ten post-irradiation
Procedure: An irradiation recovery assay was also employed to investigate the role of wnt signaling in hematopoietic homeostasis in zebrafish. Transgenic fish expressing wnt-related genes were sublethally irradiated and heat shock gene induction was initiated by overnight incubation at 38° C. on day two post-irradiation. Kidney marrow was harvested at various timepoints post-irradiation as outlined previously for the prostaglandin experiments. FIG. 11. […] Inhibition of wnt signaling, by heat shock dkk or dnTCF, drastically alters the kinetics of marrow recovery and can result in the complete failure of marrow regeneration and lethality.
as §1

embryonic hematopoiesis = experiment: RA / DEAB treatment of wild-type and kgg zebrafish embryos; assay type: in vivo
[8] = system: ES cell-derived embryoid bodies; experiment: Hematopoietic colonies from ES cell-derived embryoid bodies treated with DEAB or RA; assay type: cell-based, mouse; settings: added to EBs between days two to three
From the text: DEAB and RA also affected the formation of mouse hematopoietic progenitors arising from ES cell-derived embryoid bodies (EBs). […] See also Davidson et al., 425 Nature 300-06 (2003); Davidson & Zon, 292(2) Devel. Biol. 506-18 (2006).

CCCCC[C@H](O)/C=C/[C@H]1[C@H](O)CC(=O)[C@@H]1C/C=C\CCCC(=O)O [PGE2, prostaglandin E2]
wnt activity in the AGM of TOP:gal mice (wnt activity [1]): induced wnt activity
wnt activity (GFP expression) in TOP:dGFP embryos (wnt activity [2]): markedly enhanced wnt activity
increased runx1/cmyb expression (# embryos altered/# scored) (runx1/cmyb+ AGM HSCs [3]; 20 μM, 36 hpf): 25/49
effect on AGM HSCs in zebrafish embryos (in words) (runx1/cmyb+ AGM HSCs [3]): stronger expression of runx1/cmyb than PGI2; also recorded: increase moderately

COc1ccc2c(c1)c(CC(=O)O)c(C)n2C(=O)c1ccc(Cl)cc1 [Indomethacin]
HSC numbers along the floor of the aorta by confocal microscopy (in words) (cmyb/lmo2+ HSCs): significantly decreased numbers of HSCs
PGE2 formation after treatment (PGE2 formation): < 2 pg/50 embryos
colony growth (mouse ES cells): inhibited colony growth
embryos with slightly altered intersomitic vessels (vasculature (flk1)): 30%
embryos with slightly altered intersomitic vessels (# altered/# examined) (vasculature (flk1)): 15/49
cmyb expression by qPCR (in words) (runx1, cmyb expression; 10 μM): significant alterations
runx1 expression by qPCR, reduction (runx1, cmyb expression; indomethacin 10 μM): 50%
wnt activity (GFP) in kidney marrow of Top:dGFP adults (wnt activity [4]): inhibited GFP expression
effect on wnt8-mediated enhancement of runx1/cmyb expression / HSC induction (runx1/cmyb+ AGM HSCs [5]; listed as indo): reversed
effect on wnt8-mediated enhancement of runx1/cmyb expression / HSC induction (runx1/cmyb+ AGM HSCs [5]; listed as indomethacin): can be blocked
number of CFU-S12, decrease ([6]; WBM ex vivo 1 μM/10^6 cells, 1×10^5 cells transplanted): 70%
CFU-S12 Colony Number ([6]; Whole Marrow, 100000 cells transplanted, 1 μM/10^6 cells ex vivo, EtOH 8.8 (2.1)): 2.5 (1.4)
wnt activity (GFP expression) in TOP:dGFP embryos (wnt activity [2]; listed as indo): virtual absence of wnt activity
wnt activity (GFP expression) in TOP:dGFP embryos (wnt activity [2]; listed as indomethacin): severely reduced GFP expression
effect on wnt-mediated enhancement of the kidney marrow precursor cell population ([7]; listed as Indo): blocked
effect on wnt-mediated enhancement of the kidney marrow precursor cell population ([7]; listed as indomethacin): severely diminish
embryos with AGM HSCs inhibited (runx1/cmyb+ AGM HSCs [3]; 10 μM): 90%
decreased runx1/cmyb+ HSCs (# embryos altered/# scored) (runx1/cmyb+ AGM HSCs [3]; 10 μM, 36 hpf): 92/102
effect on AGM HSCs in zebrafish embryos (in words) (runx1/cmyb+ AGM HSCs [3]): reduced stem cells in the aorta

CCN(CC)c1ccc(C=O)cc1 [DEAB]
erythroid cells in wild-type embryos (embryonic hematopoiesis): induced an expansion of erythroid cells
expression of hoxa9a in kgg embryos (embryonic hematopoiesis): failed to rescue
hematopoiesis in kgg mutants (embryonic hematopoiesis): restored hematopoiesis
increase in 'primitive' erythroid colonies (CFU-Ep) [8]: five-eight fold

— patent US10272110B2, “Methods for promoting HSC engraftment” (CHILDREN'S MEDICAL CENTER CORPORATION, priority 2006, dated 2019)
